System: hepatocytes
Assay: Seq-Well scRNA-Seq of hepatocytes after APAP overdose (signature scores, DEG vs untreated)
Type: in vivo, mouse
[1] = A24 (24 h post-APAP) vs other clusters, Wilcox

SMILES: CC(=O)Nc1ccc(O)cc1 [APAP, acetaminophen]
- Vcam1 avg_logFC (A6 vs UT): 0.4574
- Vcam1 pct.1 (A6 vs UT): 0.134
- Vkorc1 avg_logFC (A6 vs UT): −0.4042
- Vkorc1 pct.1 (A6 vs UT): 0.296
- Vsig4 avg_logFC (A6 vs UT): 0.4833
- Vsig4 pct.1 (A6 vs UT): 0.117
- Wbp1l avg_logFC (A6 vs UT): 0.5535
- Wdr26 avg_logFC (A6 vs UT): 0.4325
- Wdr26 pct.1 (A6 vs UT): 0.549
- Wfdc17 avg_logFC (A6 vs UT): 0.4867
- Wfdc17 pct.1 (A6 vs UT): 0.177
- Xbp1 avg_logFC (A6 vs UT): 0.6032
- Xrn2 A6logFC (A6 vs UT): 0.2985
- Xrn2 avg_logFC (A6 vs UT): 0.2985
- Xrn2 pct.1 (A6 vs UT): 0.387
- Yap1 A6logFC (A6 vs UT): 0.3281
- Ythdc1 A6logFC (A6 vs UT): 0.2641
- Ythdc1 avg_logFC (A6 vs UT): 0.2641
- Ythdc1 pct.1 (A6 vs UT): 0.301
- Ywhag avg_logFC (A6 vs UT): 0.5824
- Zbtb20 avg_logFC (A6 vs UT): 0.4715
- Zbtb20 pct.1 (A6 vs UT): 0.566
- Zfand5 A6logFC (A6 vs UT): 0.2882
- Zfand5 avg_logFC (A6 vs UT): 0.2882
- Zfand5 pct.1 (A6 vs UT): 0.401
- Zfp106 A6logFC (A6 vs UT): 0.3369
- Zfp106 avg_logFC (A6 vs UT): 0.3369
- Zfp106 pct.1 (A6 vs UT): 0.391
- Zfp259 A6logFC (A6 vs UT): 0.2556
- Zfp259 avg_logFC (A6 vs UT): 0.2556
- Zfp259 pct.1 (A6 vs UT): 0.32
- mmu-mir-6240 avg_logFC (A6 vs UT): 1.101
- mt-Co2 avg_logFC (A6 vs UT): −1.105
- mt-Co3 avg_logFC (A6 vs UT): −0.7059
- mt-Co3 pct.1 (A6 vs UT): 0.346
- mt-Nd1 avg_logFC (A6 vs UT): −0.3883
- mt-Nd4 avg_logFC (A6 vs UT): −0.6388
- n-R5-8s1 avg_logFC (A6 vs UT): 0.7661
- avg_logFC AA474408 [1]: 0.4148
- avg_logFC Abca1 [1]: 0.3831
- avg_logFC Acly [1]: 0.4101
- avg_logFC Acox1 [1]: 0.2743
- avg_logFC Acsl4 [1]: 0.299
- avg_logFC Adh4 [1]: 0.392
- avg_logFC Ak3 [1]: 0.2505
- avg_logFC Aox3 [1]: 0.3489
- avg_logFC Arcn1 [1]: 0.3044
- avg_logFC Atp8b1 [1]: 0.361
- avg_logFC Atp11c [1]: 0.2568
- avg_logFC Atxn1 [1]: 0.325
- avg_logFC Calm1 [1]: 0.3702
- avg_logFC Calu [1]: 0.3005
- avg_logFC Canx [1]: 0.2771
- avg_logFC Cltc [1]: 0.3397
- avg_logFC Cmah [1]: 0.4243
- avg_logFC Copa [1]: 0.3334
- avg_logFC Cps1 [1]: 0.2775
- avg_logFC Ctnnb1 [1]: 0.329
- avg_logFC Cxcl1 [1]: 0.453
- avg_logFC Cyb5r3 [1]: 0.3097
- avg_logFC Ddost [1]: 0.2909
- avg_logFC Dhcr24 [1]: 0.2824
- avg_logFC Dnajb11 [1]: 0.3288
- avg_logFC Dnajc12 [1]: 0.3241
- avg_logFC Echdc1 [1]: 0.2818
- avg_logFC Edem1 [1]: 0.2675
- avg_logFC Efna1 [1]: 0.3161
- avg_logFC Eif4g1 [1]: 0.2763
- avg_logFC Eif4g2 [1]: 0.3515
- avg_logFC Eprs [1]: 0.2513
- avg_logFC Etnk1 [1]: 0.3194
- avg_logFC Fam120a [1]: 0.2583
- avg_logFC Fasn [1]: 0.2699
- avg_logFC Fndc3b [1]: 0.3202
- avg_logFC Fos [1]: 0.3632
- avg_logFC Gjb2 [1]: 0.2998
- avg_logFC Gm5424 [1]: 0.262
- avg_logFC Gm24245 [1]: 0.414
- avg_logFC Grlf1 [1]: 0.2556
- avg_logFC Hnf4a [1]: 0.255
- avg_logFC Hs3st3b1 [1]: 0.3219
- avg_logFC Hsd3b5 [1]: 0.3009
- avg_logFC Hsd17b2 [1]: 0.3231
- avg_logFC Hspa13 [1]: 0.342
- avg_logFC Ibtk [1]: 0.2959
- avg_logFC Il6st [1]: 0.3011
- avg_logFC Il13ra1 [1]: 0.2889
- avg_logFC Insig1 [1]: 0.4125
- avg_logFC Kmo [1]: 0.2687
- avg_logFC Lasp1 [1]: 0.2608
- avg_logFC Lgr4 [1]: 0.2572
- avg_logFC Lman1 [1]: 0.2518
- avg_logFC Lpgat1 [1]: 0.2525
- avg_logFC Lrg1 [1]: 0.3096
- avg_logFC Lrp1 [1]: 0.4837
- avg_logFC Lrrc59 [1]: 0.2688
- avg_logFC Met [1]: 0.2512
- avg_logFC Mlec [1]: 0.3405
- avg_logFC Mtss1 [1]: 0.2522
- avg_logFC Mtus1 [1]: 0.3125
- avg_logFC Mug2 [1]: 0.3166
- avg_logFC Nab1 [1]: 0.2601
- avg_logFC Nars [1]: 0.3127
- avg_logFC Nedd4 [1]: 0.3306
- avg_logFC Nr1d2 [1]: 0.3855
- avg_logFC Nr5a2 [1]: 0.2599
- avg_logFC Nrp1 [1]: 0.33
- avg_logFC Ostc [1]: 0.3082
- avg_logFC Pnpla7 [1]: 0.3966
- avg_logFC Prg4 [1]: 0.4007
- avg_logFC Prkd3 [1]: 0.3041
- avg_logFC Proz [1]: 0.28
- avg_logFC Pten [1]: 0.2663
- avg_logFC Ptprf [1]: 0.2888
- avg_logFC Qsox1 [1]: 0.2818
- avg_logFC Rab1 [1]: 0.3145
- avg_logFC Rdx [1]: 0.276
- avg_logFC Rpn1 [1]: 0.3992
- avg_logFC Rrbp1 [1]: 0.2968
- avg_logFC Sdf2l1 [1]: 0.3078
- avg_logFC Sec31a [1]: 0.2596
- avg_logFC Sec61b [1]: 0.3008
- avg_logFC Sel1l [1]: 0.2833
- avg_logFC Sh3bgrl [1]: 0.2668
- avg_logFC Slc3a1 [1]: 0.3074
- avg_logFC Slc38a10 [1]: 0.2557
- avg_logFC Spcs3 [1]: 0.3907
- avg_logFC Srebf1 [1]: 0.3149
- avg_logFC Srp72 [1]: 0.28
- avg_logFC Srpr [1]: 0.2914
- avg_logFC Ssr1 [1]: 0.3129
- avg_logFC Stard4 [1]: 0.2922
- avg_logFC Stt3b [1]: 0.2648
- avg_logFC Tmed7 [1]: 0.3715
- avg_logFC Tmem30a [1]: 0.3056
- avg_logFC Trip12 [1]: 0.2832
- avg_logFC Txndc5 [1]: 0.2758
- avg_logFC Uggt1 [1]: 0.2805
- avg_logFC Uso1 [1]: 0.3202
- avg_logFC Usp4 [1]: 0.2959
- avg_logFC Usp9x [1]: 0.3387
- avg_logFC Zbtb20 [1]: 0.3135
- Atp11c A24logFC (A24 vs UT): 0.2605
- Brd2 A24logFC (A24 vs UT): 0.2664
- Caprin1 A24logFC (A24 vs UT): 0.2628
- Copz1 A24logFC (A24 vs UT): 0.2577
- Ctsc A24logFC (A24 vs UT): 0.3004
- Ddost A24logFC (A24 vs UT): 0.2504
- Deptor A24logFC (A24 vs UT): 0.2606
- Eif4b A24logFC (A24 vs UT): 0.256
- Fasn A24logFC (A24 vs UT): 0.2914
- Gm20594 A24logFC (A24 vs UT): −0.36
- Lasp1 A24logFC (A24 vs UT): 0.253
- Proz A24logFC (A24 vs UT): 0.2632
- Rnf13 A24logFC (A24 vs UT): 0.2553
- Ubb A24logFC (A24 vs UT): −0.2593
- avg_logFC 1110008F13Rik (A24 vs untreated (UT)): −0.4553
- avg_logFC AA474408 (A24 vs untreated (UT)): 0.4364
- avg_logFC Aadac (A24 vs untreated (UT)): −0.4038
- avg_logFC Abca1 (A24 vs untreated (UT)): 0.4394
- avg_logFC Acaa1b (A24 vs untreated (UT)): −0.8508
- avg_logFC Acot1 (A24 vs untreated (UT)): −0.2862
- avg_logFC Acox1 (A24 vs untreated (UT)): 0.2752
- avg_logFC Acsl1 (A24 vs untreated (UT)): −0.3703
- avg_logFC Acsl4 (A24 vs untreated (UT)): 0.3147
- avg_logFC Actb (A24 vs untreated (UT)): 0.3845
- avg_logFC Adh1 (A24 vs untreated (UT)): −0.342
- avg_logFC Adh4 (A24 vs untreated (UT)): 0.3769
- avg_logFC Ahcy (A24 vs untreated (UT)): −0.563
- avg_logFC Ak3 (A24 vs untreated (UT)): 0.289
- avg_logFC Akr1c6 (A24 vs untreated (UT)): −0.3176
- avg_logFC Alas1 (A24 vs untreated (UT)): −0.4898
- avg_logFC Aldh3a2 (A24 vs untreated (UT)): −0.3008
- avg_logFC Ankrd55 (A24 vs untreated (UT)): −1.874
- avg_logFC Aox3 (A24 vs untreated (UT)): 0.2878
- avg_logFC Apcs (A24 vs untreated (UT)): 0.6067
- avg_logFC Apoa2 (A24 vs untreated (UT)): −0.5455
- avg_logFC Apoa5 (A24 vs untreated (UT)): −0.299
- avg_logFC Apob (A24 vs untreated (UT)): 0.4272
- avg_logFC Apoc1 (A24 vs untreated (UT)): −0.3803
- avg_logFC Apoc3 (A24 vs untreated (UT)): −0.4404
- avg_logFC Apoc4 (A24 vs untreated (UT)): −0.4285
- avg_logFC Apoe (A24 vs untreated (UT)): −0.4213
- avg_logFC Arcn1 (A24 vs untreated (UT)): 0.3278
- avg_logFC Arrdc3 (A24 vs untreated (UT)): 0.5269
- avg_logFC Atp8b1 (A24 vs untreated (UT)): 0.3628
- avg_logFC Atp5h (A24 vs untreated (UT)): −0.5795
- avg_logFC Atxn1 (A24 vs untreated (UT)): 0.3049
- avg_logFC B2m (A24 vs untreated (UT)): −0.418
- avg_logFC BC025446 (A24 vs untreated (UT)): 0.2942
- avg_logFC Bhmt (A24 vs untreated (UT)): −0.5202
- avg_logFC C3 (A24 vs untreated (UT)): 0.4495
- avg_logFC C8a (A24 vs untreated (UT)): 0.3337
- avg_logFC C8b (A24 vs untreated (UT)): 0.3187
- avg_logFC C8g (A24 vs untreated (UT)): −0.482
- avg_logFC Calm1 (A24 vs untreated (UT)): 0.4131
- avg_logFC Calr (A24 vs untreated (UT)): 0.5551
- avg_logFC Calu (A24 vs untreated (UT)): 0.3041
- avg_logFC Canx (A24 vs untreated (UT)): 0.3434
- avg_logFC Cat (A24 vs untreated (UT)): 0.2626
- avg_logFC Cebpb (A24 vs untreated (UT)): −0.4716
- avg_logFC Ces1c (A24 vs untreated (UT)): −0.2783

Reference: patent US20230053540A1, “TREATMENT OF LIVER INJURY” (Massachusetts Institute of Technology, priority 2019, published 2023)
